Series [1] is described as follows: Storage stability of lyophilized voriconazole compositions, total impurities by HPLC after reconstitution. It is filed as physicochemical. The protocol:
Lyophilized compositions were formed by dissolving the excipient (SBECD or HPCD) in water and adjusting the pH of the resulting excipient solution. Voriconazole (200 mg) was added to the excipient solution, and the pH of the resulting lyophilization solution was adjusted as necessary. The lyophilization solutions were then filtered and lyophilized to form solid compositions. The lyophilization procedure was adjusted as need for each type of composition; however, the general procedure included reducing the temperature of the lyophilization solutions to −45° C., performing a primary drying at a temperature of from −35 to −15° C. and under a vacuum of from 50-200 milliTorr (mTorr), and performing a secondary drying at a temperature of 40° C. To ensure the lowest initial impurities possible, the solutions for lyophilization were prepared at low temperature, using a nitrogen blanket and purging.
Each composition was sealed in a 5 mL vial with a 13 mm rubber stopper (STELMI 6720GC; American Stelmi Corporation, Princeton, N.J.) and stored at 25° C., 40° C. or 55° C. (all temperatures ±2° C.). After storage for 4 or 8 weeks at 25° C., for 4, 8 or 12 weeks at 40° C., or for 2 or 4 weeks at 55° C., a portion of the vials were reconstituted with 19 mL of water for injection. The reconstituted liquids were analyzed by HPLC to determine the concentrations of voriconazole and of any impurities. For comparison, a portion of each composition was reconstituted at the beginning of the storage time (time=0 weeks) with 19 mL of water for injection, and analyzed by HPLC for voriconazole and impurity concentrations.
Solutions comprising HPCD and voriconazole were prepared as described in Example 1, except that the pH of the solution prior to lyophilization was adjusted to 5.18, 5.5, 6.0, 6.5, or 7.0. The lyophilized compositions were formed and then analyzed for the stability of voriconazole over time at 40° C. or 55° C., as described above with regard to Table 1. Table 2 lists the results of stability analyses of lyophilized compositions containing voriconazole in combination with HPCD, where the compositions had different pH values prior to lyophilization.
The lyophilized compositions were formed and then analyzed for voriconazole stability over time at 40° C. and 55° C., as described above with regard to Table 1. Table 3 lists the results of stability analyses of lyophilized compositions containing voriconazole in combination with HPCD, where the compositions further included one of the amino acids arginine, aspartic acid or glycine.
The lyophilized compositions were formed and then analyzed for voriconazole stability over time at 40° C. and 55° C., as described above with regard to Table 3. Table 4 lists the results of stability analyses of lyophilized compositions containing voriconazole in combination with HPCD, where the compositions further included one of the amino acids lysine, histidine, asparagine, glutamine or threonine.
The effects of pH prior to lyophilization were analyzed for the formulations that included lactose. The lyophilized compositions were formed and then analyzed for voriconazole stability over time at 40° C. and 55° C., as described above with regard to Table 3. […]
The pH prior to lyophilization was adjusted to 6.2 with HCl/NaOH. The lyophilized compositions were formed and then analyzed for voriconazole stability over time at 40° C. and 55° C., as described above with regard to Table 3. […]

The conditions of series [2]: aqueous liquid having a pH of 3; cited from earlier work.

For `C[C@@H](c1ncncc1F)[C@](O)(Cn1cncn1)c1ccc(F)cc1F` [voriconazole, (2R,3S)-2-(2,4-difluorophenyl)-3-(5-fluoro-4-pyrimidinyl)-1-(1H-1,2,4-triazol-1-yl)-2-butanol], the “Total impurities (%)” value in series [1] (lyophilized solid stored at 40 °C, 4 weeks) stood at 0.70%; in series [1] (lyophilized solid stored at 40 °C, 8 weeks), 0.34%; in series [1] (lyophilized solid stored at 40 °C, 12 weeks) it was 0.43%; in series [1] (lyophilized solid stored at 55 °C, 2 weeks), 0.58%; in series [1] (lyophilized solid, time 0 weeks (reconstituted at beginning of storage)) it was 0.18%. Moreover, in series [2], the solubility of voriconazole is 2000 µg/mL.
